Experimental data published in ChEMBL document CHEMBL1201862, “PubChem BioAssay data set” (2004).
Activity calls are given as the source filed them.

Tests used:
[1] = Shn3 3'UTR reporter inhibitors, dose response, cell-based, Clone20 osteoblasts, firefly luciferase, cherry-picked (AID 624132); assay type: functional;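 further: firefly luciferase luminescence from reporter carrying the Shn3 3'UTR in osteoblasts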
[2] = Intein inhibitors as potential Tuberculosis drugs, a cytotoxicity screen. [Related pubchem assays (depositor defined):AID2221, AID2223, AID434968, AID435010, AID449749, AID449750, AID489010]; assay type: functional
[3] = control 3'UTR Renilla luciferase suppression, dose response, counter-screen for Shn3 inhibitor project, cell-based, Clone20-Shn3RL, cherry-picked (AID 624133); assay type: functional
[4] = target: Neurotensin receptor type 1 (Homo sapiens, UniProt P30989); assay type: functional;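 further: Image-based confirmatory dose-response assay measuring agonist activity at NTR1; NTR1-expressing U2OS osteosarcoma cells imaged for beta-arrestin GFP spot formation; agonist potency where compounds increase beta-arrestin recruitment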
Chain of Neurotensin receptor type 1 (P30989 whole entry): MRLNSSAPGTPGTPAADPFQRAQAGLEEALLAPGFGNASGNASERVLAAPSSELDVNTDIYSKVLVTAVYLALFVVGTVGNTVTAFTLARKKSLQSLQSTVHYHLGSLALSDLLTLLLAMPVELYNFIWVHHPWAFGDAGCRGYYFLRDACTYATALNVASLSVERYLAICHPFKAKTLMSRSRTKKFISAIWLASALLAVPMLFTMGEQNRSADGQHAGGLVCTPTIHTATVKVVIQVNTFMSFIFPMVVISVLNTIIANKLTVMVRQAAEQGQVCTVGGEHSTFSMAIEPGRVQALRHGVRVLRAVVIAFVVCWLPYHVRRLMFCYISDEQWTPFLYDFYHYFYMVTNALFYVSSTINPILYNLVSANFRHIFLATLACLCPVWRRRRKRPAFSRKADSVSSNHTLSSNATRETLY

[5] = target: DNA damage-inducible transcript 3 protein (Mus musculus, UniProt P35639); assay type: functional, Cricetulus griseus
Chain of DNA damage-inducible transcript 3 protein (P35639 whole entry): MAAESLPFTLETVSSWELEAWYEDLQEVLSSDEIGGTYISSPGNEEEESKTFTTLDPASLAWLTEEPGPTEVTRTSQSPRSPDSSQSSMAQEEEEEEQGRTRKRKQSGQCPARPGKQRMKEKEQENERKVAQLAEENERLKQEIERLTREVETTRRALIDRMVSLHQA

[6] = cytotoxicity toward NIH3T3 fibroblasts, dose response, counter-screen, cell-based, ATP luminescence, mouse fibroblasts (AID 2010); assay type: functional;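 further: cells exposed to compound for about 90 hours before reading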
[7] = inhibitors of intracellular T. cruzi replication, confirmation, NIH3T3 host cells, beta-gal luminescence (AID 2044); assay type: functional, cell-based;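 further: intracellular parasites grown in NIH/3T3 mouse fibroblasts as host cells; luminescent beta-galactosidase reporter signal from transgenic T. cruzi replicating inside host cells; inhibitors lower the luminescence signal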
[8] = HepG2 cell cytotoxicity, dose response, cytotoxicity control for Shn3 inhibitor project, CellTiter-Glo, cherry-picked (AID 624134); assay type: functional, cell-based
Protein RecA = target: T1, Protein RecA (Mycobacterium tuberculosis, UniProt P9WHJ3); assay: Fluorescence Cell-Free Homogeneous Dose Retest to Identify Inhibitors of RecA-Intein Splicing Activity. [Related pubchem assays (depositor defined):AID2097, AID2223, AID489010, AID492950]; assay type: functional
T1 sequence (P9WHJ3 whole entry): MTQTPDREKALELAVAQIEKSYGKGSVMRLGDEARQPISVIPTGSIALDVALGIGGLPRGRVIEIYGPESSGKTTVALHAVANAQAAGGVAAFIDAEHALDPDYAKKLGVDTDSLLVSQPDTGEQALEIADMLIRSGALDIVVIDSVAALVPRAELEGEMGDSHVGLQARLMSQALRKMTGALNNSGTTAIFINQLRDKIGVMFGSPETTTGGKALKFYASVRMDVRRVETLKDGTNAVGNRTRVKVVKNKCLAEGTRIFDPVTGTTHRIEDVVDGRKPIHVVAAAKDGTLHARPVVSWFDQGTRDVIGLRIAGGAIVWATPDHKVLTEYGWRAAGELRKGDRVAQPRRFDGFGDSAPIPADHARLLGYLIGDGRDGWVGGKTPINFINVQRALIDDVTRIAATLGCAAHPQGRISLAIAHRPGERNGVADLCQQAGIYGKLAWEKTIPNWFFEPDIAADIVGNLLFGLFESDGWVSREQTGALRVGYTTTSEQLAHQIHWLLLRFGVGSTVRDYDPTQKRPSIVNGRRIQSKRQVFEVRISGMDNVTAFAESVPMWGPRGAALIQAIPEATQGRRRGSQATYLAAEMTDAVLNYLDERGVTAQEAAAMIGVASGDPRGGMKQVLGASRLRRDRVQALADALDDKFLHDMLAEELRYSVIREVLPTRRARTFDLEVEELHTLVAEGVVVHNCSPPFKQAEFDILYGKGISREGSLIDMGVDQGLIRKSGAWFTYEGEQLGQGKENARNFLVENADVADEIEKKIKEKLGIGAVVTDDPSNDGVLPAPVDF

[9] = target: T2, Replicative DNA helicase DnaB (Mycobacterium tuberculosis, UniProt P9WMR3); assay: DnaB intein splicing inhibitors, dose response, biochemical, cell-free fluorescence (AID 449749); assay type: functional
T2 sequence (P9WMR3 whole entry): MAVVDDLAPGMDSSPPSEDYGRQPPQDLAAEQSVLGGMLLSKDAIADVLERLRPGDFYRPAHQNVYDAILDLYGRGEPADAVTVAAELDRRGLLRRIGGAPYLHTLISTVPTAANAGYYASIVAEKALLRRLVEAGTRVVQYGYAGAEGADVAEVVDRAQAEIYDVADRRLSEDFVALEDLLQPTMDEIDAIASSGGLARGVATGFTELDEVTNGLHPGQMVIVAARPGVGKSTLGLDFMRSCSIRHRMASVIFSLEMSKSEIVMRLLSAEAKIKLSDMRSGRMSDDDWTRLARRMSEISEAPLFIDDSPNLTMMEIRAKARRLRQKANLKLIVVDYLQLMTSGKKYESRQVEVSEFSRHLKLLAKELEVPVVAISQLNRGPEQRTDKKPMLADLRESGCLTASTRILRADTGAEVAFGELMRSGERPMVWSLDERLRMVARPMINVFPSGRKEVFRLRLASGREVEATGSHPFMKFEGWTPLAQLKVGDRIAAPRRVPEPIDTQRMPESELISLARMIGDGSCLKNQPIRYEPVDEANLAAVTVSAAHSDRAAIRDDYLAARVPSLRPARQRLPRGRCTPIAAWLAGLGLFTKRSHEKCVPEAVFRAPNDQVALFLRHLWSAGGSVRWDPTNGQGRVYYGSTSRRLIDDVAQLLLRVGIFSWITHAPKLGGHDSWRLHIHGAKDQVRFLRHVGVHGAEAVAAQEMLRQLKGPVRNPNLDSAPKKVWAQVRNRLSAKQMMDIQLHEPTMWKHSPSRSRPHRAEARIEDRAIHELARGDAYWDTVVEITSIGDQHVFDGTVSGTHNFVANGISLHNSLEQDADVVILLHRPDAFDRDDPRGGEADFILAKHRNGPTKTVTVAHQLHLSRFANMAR

Estrogen receptor = target: T3, Estrogen receptor (Homo sapiens, UniProt P03372);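 further: potency for inhibiting coactivator peptide recruitment to the receptor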
T3 sequence (P03372 whole entry): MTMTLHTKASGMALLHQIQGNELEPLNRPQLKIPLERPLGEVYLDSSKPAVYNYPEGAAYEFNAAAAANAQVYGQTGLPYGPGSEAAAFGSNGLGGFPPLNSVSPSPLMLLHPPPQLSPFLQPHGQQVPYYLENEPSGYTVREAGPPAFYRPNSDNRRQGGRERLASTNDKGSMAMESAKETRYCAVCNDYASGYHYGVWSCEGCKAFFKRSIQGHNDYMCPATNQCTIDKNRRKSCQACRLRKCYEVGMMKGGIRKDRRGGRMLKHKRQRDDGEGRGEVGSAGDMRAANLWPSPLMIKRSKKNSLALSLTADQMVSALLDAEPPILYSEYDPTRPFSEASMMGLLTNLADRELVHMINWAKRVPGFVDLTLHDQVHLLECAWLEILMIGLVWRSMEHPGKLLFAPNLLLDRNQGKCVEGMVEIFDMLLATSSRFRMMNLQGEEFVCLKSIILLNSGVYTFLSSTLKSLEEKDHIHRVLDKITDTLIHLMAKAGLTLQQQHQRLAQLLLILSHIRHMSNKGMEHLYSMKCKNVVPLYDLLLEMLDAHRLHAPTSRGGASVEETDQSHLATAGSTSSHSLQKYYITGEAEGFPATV

[10] = cytotoxicity in KRAS-transformed pancreatic duct cells, primary screen, cell-based, fluorescence, HTS (AID 431); assay type: functional; conditions: Homo sapiens;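 further: cell line used: HPDE-C7K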
[11] = target: T4, Runt-related transcription factor 1/Core-binding factor subunit beta (Homo sapiens, UniProt Q01196+Q13951); assay: inhibitors of RUNX1 Runt–CBFb-SMMHC binding, biochemical, TR-FRET (AID 1438); assay type: protein assay
T4 sequence (Q01196 whole entry, the tested form may be a part): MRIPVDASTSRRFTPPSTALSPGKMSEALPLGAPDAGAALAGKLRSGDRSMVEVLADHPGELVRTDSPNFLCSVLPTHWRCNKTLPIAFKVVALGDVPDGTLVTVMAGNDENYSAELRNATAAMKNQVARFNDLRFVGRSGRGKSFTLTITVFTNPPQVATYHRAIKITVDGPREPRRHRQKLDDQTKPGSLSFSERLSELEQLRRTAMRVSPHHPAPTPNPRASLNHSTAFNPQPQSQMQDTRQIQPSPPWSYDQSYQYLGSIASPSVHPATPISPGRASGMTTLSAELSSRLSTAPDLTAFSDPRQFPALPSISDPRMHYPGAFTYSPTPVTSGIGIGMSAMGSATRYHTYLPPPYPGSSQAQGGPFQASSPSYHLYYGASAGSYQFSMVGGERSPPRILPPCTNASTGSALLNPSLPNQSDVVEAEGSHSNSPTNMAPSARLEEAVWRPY
T4 sequence (Q13951 whole entry, the tested form may be a part): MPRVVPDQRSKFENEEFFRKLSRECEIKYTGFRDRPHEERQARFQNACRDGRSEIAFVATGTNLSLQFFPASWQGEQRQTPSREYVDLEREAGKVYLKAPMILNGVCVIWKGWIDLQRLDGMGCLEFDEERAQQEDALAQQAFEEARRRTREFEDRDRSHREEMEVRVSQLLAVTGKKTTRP

[12] = target: T4, Runt-related transcription factor 1/Core-binding factor subunit beta; assay: inhibitors of RUNX1 Runt–CBFb-SMMHC binding, primary screen, biochemical, FRET, Cerulean-Runt, Venus-CBFb-SMMHC, uHTS (AID 1434); assay type: protein assay;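 further: partner is the CBFb-SMMHC leukemia fusion protein rather than wild-type CBFb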
[13] = cytotoxicity in HPDE-C7 cells, cell-based, fluorescence, HTS (AID 430); assay type: functional; conditions: Homo sapiens
Mucolipin-3 = Mucolipin-3 (Homo sapiens, UniProt Q8TDD5); assay: Fluorescence counterscreen assay for […] agonists: dose response cell-based high-throughput screening assay to identify agonists of the transient receptor potential channel ML3 (TRPML3). [Related pubchem assays: 1424, 1448 ]; assay type: functional
Chain of Mucolipin-3 (Q8TDD5 whole entry): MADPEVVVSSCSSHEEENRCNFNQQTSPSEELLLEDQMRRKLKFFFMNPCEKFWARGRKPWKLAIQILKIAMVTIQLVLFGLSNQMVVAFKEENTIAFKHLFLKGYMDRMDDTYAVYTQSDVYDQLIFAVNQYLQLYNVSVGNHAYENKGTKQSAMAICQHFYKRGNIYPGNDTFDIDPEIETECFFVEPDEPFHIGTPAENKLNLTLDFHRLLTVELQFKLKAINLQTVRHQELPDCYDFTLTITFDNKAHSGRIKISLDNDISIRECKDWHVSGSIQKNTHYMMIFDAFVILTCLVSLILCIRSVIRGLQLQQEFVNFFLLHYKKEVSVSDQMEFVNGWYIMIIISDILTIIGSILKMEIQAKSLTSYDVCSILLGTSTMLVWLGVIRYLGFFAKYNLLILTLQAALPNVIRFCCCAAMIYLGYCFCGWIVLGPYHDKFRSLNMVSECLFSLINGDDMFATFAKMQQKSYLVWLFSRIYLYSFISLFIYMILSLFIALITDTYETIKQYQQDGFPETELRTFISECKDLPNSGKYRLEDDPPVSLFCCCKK

[14] = target: T5, Voltage-gated N-type calcium channel alpha-1B subunit/Amyloid beta A4 precursor protein-binding family A member 1 (Homo sapiens, UniProt Q00975+Q02410); assay type: protein assay
T5 sequence (Q00975 whole entry): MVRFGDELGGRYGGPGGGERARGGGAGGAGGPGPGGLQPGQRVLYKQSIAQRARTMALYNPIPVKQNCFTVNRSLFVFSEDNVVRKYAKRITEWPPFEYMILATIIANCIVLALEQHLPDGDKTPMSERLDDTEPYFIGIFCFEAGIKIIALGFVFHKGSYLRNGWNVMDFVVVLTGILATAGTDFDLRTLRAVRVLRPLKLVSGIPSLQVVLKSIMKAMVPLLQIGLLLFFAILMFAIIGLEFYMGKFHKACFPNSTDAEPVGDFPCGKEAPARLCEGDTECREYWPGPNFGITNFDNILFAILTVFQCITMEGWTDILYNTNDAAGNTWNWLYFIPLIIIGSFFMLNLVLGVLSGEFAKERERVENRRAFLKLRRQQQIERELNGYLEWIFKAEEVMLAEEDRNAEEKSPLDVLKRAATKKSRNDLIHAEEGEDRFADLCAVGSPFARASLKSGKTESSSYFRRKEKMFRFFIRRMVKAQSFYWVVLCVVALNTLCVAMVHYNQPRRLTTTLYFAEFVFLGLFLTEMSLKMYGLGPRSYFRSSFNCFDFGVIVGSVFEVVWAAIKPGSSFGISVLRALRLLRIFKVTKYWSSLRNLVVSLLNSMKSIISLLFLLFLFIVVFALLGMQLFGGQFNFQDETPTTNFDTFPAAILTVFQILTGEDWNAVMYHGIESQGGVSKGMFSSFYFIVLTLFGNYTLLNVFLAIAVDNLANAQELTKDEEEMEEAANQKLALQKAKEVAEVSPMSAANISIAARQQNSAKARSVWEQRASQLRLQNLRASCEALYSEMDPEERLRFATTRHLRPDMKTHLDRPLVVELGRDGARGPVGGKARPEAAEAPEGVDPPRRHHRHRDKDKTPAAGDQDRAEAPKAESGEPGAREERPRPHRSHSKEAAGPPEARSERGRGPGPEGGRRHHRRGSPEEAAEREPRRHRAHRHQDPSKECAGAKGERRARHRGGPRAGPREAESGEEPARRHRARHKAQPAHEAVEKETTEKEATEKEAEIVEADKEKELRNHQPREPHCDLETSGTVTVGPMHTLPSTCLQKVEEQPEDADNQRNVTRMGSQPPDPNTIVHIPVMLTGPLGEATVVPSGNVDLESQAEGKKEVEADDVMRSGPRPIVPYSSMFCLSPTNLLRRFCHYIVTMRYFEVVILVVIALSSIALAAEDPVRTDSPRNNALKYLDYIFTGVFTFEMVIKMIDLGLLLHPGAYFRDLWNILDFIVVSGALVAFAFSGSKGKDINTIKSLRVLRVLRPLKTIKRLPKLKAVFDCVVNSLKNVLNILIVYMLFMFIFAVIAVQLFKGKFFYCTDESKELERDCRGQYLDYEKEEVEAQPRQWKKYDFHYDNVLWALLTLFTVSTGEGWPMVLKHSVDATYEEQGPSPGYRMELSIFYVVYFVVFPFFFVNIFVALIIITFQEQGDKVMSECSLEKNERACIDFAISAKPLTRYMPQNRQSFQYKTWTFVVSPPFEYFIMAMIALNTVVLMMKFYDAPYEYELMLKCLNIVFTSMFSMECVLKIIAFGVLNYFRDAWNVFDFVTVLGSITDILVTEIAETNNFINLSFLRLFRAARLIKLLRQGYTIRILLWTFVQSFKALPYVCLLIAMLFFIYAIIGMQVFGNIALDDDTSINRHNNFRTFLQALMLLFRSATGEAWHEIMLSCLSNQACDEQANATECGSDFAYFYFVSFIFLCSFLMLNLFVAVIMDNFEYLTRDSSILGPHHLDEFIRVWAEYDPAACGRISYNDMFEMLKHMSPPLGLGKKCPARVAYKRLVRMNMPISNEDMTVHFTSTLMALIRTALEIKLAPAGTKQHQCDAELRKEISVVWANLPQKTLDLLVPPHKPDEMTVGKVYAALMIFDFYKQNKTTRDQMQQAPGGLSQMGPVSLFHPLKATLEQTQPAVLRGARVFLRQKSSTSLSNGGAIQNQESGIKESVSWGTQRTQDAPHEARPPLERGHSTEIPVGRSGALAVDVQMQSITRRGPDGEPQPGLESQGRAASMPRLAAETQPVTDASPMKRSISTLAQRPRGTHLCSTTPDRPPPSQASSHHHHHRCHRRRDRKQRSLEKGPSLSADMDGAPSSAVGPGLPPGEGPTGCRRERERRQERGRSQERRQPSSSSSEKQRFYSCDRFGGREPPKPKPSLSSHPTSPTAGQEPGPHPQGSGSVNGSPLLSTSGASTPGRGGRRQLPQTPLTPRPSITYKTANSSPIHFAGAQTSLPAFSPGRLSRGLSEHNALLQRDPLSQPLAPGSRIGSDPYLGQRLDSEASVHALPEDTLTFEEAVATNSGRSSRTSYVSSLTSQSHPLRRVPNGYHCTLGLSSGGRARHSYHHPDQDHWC
T5 sequence (Q02410 whole entry): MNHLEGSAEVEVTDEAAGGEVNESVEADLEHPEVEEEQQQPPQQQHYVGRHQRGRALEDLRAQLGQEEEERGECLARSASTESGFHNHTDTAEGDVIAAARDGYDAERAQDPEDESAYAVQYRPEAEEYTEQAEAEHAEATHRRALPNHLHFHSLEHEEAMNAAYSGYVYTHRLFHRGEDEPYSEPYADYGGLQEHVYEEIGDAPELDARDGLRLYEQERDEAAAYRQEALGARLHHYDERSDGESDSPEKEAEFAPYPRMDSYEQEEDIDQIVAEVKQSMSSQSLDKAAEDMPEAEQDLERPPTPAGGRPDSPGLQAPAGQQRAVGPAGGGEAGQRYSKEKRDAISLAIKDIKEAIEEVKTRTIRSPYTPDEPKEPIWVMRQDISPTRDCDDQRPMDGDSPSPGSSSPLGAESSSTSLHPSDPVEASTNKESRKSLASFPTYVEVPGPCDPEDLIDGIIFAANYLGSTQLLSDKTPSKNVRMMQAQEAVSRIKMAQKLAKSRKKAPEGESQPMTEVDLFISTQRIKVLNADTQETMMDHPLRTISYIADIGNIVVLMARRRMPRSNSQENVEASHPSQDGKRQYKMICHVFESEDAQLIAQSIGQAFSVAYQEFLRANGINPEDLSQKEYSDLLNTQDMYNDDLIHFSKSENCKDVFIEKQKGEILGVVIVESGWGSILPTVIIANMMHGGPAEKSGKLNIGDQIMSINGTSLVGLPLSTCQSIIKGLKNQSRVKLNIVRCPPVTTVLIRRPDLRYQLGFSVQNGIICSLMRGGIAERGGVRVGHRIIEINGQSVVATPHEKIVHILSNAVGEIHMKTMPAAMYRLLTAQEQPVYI

[15] = target: T5, Voltage-gated N-type calcium channel alpha-1B subunit/Amyloid beta A4 precursor protein-binding family A member 1; assay type: protein assay; remark: listed apart in the source
Ion channel NompC = Ion channel NompC (Danio rerio, UniProt Q7T1G6); assay: Dose response cell-based high-throughput screening assay for agonists of the transient receptor potential channel N1 (TRPN1). [Related pubchem assays (depositor defined):AID1424, AID1448]; assay type: functional
[16] = target: T6, DNA repair protein RAD52 homolog (Homo sapiens, UniProt P43351); assay type: functional, biochemical
T6 sequence (P43351 whole entry): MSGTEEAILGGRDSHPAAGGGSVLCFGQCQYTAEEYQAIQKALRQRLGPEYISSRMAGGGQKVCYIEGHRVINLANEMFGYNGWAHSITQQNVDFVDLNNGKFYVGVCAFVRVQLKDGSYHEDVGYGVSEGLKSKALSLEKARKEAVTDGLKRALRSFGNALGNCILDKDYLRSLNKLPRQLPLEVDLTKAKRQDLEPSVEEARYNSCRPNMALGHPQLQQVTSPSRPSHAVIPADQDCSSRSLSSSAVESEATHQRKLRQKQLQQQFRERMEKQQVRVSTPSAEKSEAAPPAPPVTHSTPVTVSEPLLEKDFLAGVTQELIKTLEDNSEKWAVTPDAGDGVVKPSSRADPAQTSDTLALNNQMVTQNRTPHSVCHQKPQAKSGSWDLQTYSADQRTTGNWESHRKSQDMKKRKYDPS

Hexokinase HKDC1 = target: T7, Hexokinase HKDC1 (Homo sapiens, UniProt Q2TB90); assay: HKDC1 hexokinase activators, dose response, biochemical, W721R variant (AID 504730); assay type: functional
T7 sequence (Q2TB90 whole entry): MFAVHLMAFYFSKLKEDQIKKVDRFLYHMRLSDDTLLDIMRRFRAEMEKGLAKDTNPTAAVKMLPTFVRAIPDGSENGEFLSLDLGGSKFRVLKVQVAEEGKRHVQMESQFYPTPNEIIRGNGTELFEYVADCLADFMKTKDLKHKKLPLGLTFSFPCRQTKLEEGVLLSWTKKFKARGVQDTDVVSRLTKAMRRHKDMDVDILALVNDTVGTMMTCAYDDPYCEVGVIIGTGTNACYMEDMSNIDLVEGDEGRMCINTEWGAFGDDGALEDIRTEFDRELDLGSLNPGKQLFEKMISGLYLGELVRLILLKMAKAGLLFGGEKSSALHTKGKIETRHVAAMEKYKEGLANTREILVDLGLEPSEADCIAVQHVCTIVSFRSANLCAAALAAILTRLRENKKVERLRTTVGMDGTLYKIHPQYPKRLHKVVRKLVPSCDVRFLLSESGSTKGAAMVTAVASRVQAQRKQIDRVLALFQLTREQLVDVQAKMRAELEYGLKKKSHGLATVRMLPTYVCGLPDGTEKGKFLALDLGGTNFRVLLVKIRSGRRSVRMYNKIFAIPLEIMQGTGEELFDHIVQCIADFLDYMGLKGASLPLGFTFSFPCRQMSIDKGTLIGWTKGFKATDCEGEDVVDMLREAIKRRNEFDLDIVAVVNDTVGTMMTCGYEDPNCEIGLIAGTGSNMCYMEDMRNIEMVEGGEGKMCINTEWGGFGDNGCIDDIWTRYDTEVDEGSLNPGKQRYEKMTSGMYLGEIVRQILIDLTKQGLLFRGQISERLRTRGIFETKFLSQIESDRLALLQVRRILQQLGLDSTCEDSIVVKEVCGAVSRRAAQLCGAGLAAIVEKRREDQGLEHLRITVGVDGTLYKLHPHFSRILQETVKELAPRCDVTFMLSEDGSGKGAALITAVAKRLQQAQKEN

[17] = CFTR ΔF508 corrector activity in bronchial cells, dose response, human bronchial epithelial cells, plate reader, cherry-pick, two tests (AID 743267); assay type: functional, cell-based
[18] = HeLa cell cytotoxicity, dose response, cytotoxicity control for MgcRacGAP inhibitor project (AID 624300); assay type: functional
[19] = target: T8, Rac GTPase-activating protein 1 (Homo sapiens, UniProt Q9H0H5); assay: MgcRacGAP GTPase-activating activity inhibitors, confirmation, biochemical, ADP Hunter fluorescence, primary and confirmatory (AID 624330); assay type: functional
T8 sequence (Q9H0H5 whole entry): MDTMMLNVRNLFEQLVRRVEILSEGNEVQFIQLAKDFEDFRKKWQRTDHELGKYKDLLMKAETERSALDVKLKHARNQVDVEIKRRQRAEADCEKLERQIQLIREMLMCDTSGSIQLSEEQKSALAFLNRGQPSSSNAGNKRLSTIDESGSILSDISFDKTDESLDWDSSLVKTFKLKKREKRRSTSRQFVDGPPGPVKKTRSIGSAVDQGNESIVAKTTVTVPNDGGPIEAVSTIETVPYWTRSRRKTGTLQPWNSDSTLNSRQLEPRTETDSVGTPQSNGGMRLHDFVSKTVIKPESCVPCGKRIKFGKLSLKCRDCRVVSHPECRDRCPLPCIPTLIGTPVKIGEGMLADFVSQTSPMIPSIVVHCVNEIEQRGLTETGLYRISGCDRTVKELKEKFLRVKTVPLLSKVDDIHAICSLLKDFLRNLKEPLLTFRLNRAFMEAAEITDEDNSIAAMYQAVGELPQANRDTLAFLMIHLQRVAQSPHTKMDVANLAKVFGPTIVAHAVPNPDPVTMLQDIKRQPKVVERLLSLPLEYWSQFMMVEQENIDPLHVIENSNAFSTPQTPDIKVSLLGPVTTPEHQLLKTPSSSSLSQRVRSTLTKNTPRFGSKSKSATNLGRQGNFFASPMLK

Cc1cc(Br)c2c(c1)/C(=C/C(=O)c1cccs1)C(=O)N2
AC50 [1]: 19.9 µM (active) | CC50 [2]: 18.4 µM (active) | AC50 [3]: 20.7 µM (active) | EC50 [4]: 17.4 µM (active) | Absolute IC50 (CHOP) [5]: 10 µM | EC50 [6]: > 60 µM (not active) | EC50 [7]: 1.95 µM (active) | AC50 [8]: 48.5 µM (active) | EC50 (Protein RecA): 3.27 µM (active) | AC50 [9]: 2.46 µM (active)

N#Cc1c(NCCN)nc(NCc2ccccc2)c2c1CCN(Cc1ccccc1)C2
IC50 (Estrogen receptor): 11.8 µM (active) | EC50 [10]: > 20 µM (not active) | IC50 [11]: 47.8 µM (active) | IC50 [12]: 4.57 µM (active) | EC50 [13]: > 20 µM (not active)

COc1cc(/C=C2\SC(=S)N(c3cccnc3)C2=O)ccc1O
EC50 (Mucolipin-3): > 29.9 µM (not active) | IC50 [14]: 4.4 µM (active) | IC50 [15]: > 50 µM (inactive) | EC50 (Ion channel NompC): > 29.9 µM (inactive)

Cc1ccc2c(C)c3ccc4ccccc4c3c[n+]2c1.[O-][Cl+3]([O-])([O-])[O-]
AC50 [16]: 1.34 µM (active) | EC50 (Hexokinase HKDC1): 14.2 µM (active) | AC50 [17]: 1.06 µM (active) | CC50 [18]: 78.8 µM (active) | IC50 [19]: 48 µM (active)
